From PubChem BioAssay (NCI)
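GI50: concentration for 50% inhibition of growth. The concentration for full growth arrest is given as TGI.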

Key:
Experiment in all cases: NCI anticancer screen, dose series, 384-well format
M14 melanoma = test system: M14 melanoma
OVCAR-5 ovarian = test system: OVCAR-5 ovarian
SF-268 CNS = test system: SF-268 CNS
SK-OV-3 ovarian = test system: SK-OV-3 ovarian
HOP-92 NSCLC = test system: HOP-92 NSCLC
MCF7 breast = test system: MCF7 breast
DU-145 prostate = test system: DU-145 prostate
KM12 colon = test system: KM12 colon
OVCAR-4 ovarian = test system: OVCAR-4 ovarian
TK-10 renal = test system: TK-10 renal
SF-539 CNS = test system: SF-539 CNS
HCT-15 colon = test system: HCT-15 colon
EKVX NSCLC = test system: EKVX NSCLC
A549 NSCLC = test system: A549 NSCLC
IGROV1 ovarian = test system: IGROV1 ovarian
SNB-19 CNS = test system: SNB-19 CNS
NCI/ADR-RES ovarian = test system: NCI/ADR-RES ovarian
UACC-257 melanoma = test system: UACC-257 melanoma
MALME-3M melanoma = test system: MALME-3M melanoma
NCI-H226 lung = test system: NCI-H226 lung
CAKI-1 renal = test system: CAKI-1 renal
T-47D breast = test system: T-47D breast
LOX IMVI melanoma = test system: LOX IMVI melanoma
NCI-H322M lung = test system: NCI-H322M lung
SN12C renal = test system: SN12C renal
HCC-2998 colon = test system: HCC-2998 colon
ACHN renal = test system: ACHN renal
UO-31 renal = test system: UO-31 renal
786-0 renal = test system: 786-0 renal
A498 renal = test system: A498 renal

C/C(=C\c1csc(C)n1)[C@@H]1C[C@@H]2O[C@]2(C)CCC[C@H](C)[C@H](O)[C@@H](C)C(=O)C(C)(C)[C@@H](O)CC(=O)N1
TGI (M14 melanoma): 10.3 nM
TGI (OVCAR-5 ovarian): > 100000 nM
TGI (SF-268 CNS): > 100000 nM
TGI (SK-OV-3 ovarian): > 100000 nM
TGI (HOP-92 NSCLC): > 100000 nM
TGI (MCF7 breast): > 100000 nM
TGI (DU-145 prostate): 10.7 nM
TGI (KM12 colon): > 100000 nM
TGI (OVCAR-4 ovarian): > 100000 nM
GI50 (TK-10 renal): 55.2 nM
TGI (TK-10 renal): > 100000 nM
TGI (SF-539 CNS): 13.5 nM
GI50 (HCT-15 colon): 14.1 nM
TGI (HCT-15 colon): 384 nM
GI50 (EKVX NSCLC): 24 nM
TGI (EKVX NSCLC): > 100000 nM
TGI (A549 NSCLC): > 100000 nM
GI50 (IGROV1 ovarian): 27.6 nM
TGI (IGROV1 ovarian): > 100000 nM
GI50 (SNB-19 CNS): 15.7 nM
TGI (SNB-19 CNS): > 100000 nM
GI50 (NCI/ADR-RES ovarian): 437 nM
TGI (NCI/ADR-RES ovarian): 1910 nM
TGI (UACC-257 melanoma): > 100000 nM
TGI (MALME-3M melanoma): > 100000 nM
TGI (NCI-H226 lung): > 100000 nM
TGI (CAKI-1 renal): > 100000 nM
TGI (T-47D breast): > 100000 nM
TGI (LOX IMVI melanoma): > 100000 nM
GI50 (NCI-H322M lung): 10.7 nM
TGI (NCI-H322M lung): > 100000 nM
TGI (SN12C renal): > 100000 nM
TGI (HCC-2998 colon): 12.3 nM
GI50 (ACHN renal): 40.3 nM
TGI (ACHN renal): > 100000 nM
GI50 (UO-31 renal): 60.5 nM
TGI (UO-31 renal): > 100000 nM
TGI (786-0 renal): 87.1 nM
TGI (A498 renal): > 100000 nM
